Common to all, as to assay type: cell-based
One data set concerns CCRFCEM. Nature of the data set: Solid tumour and haematological malignancy assay (CellTiterGlo). Conditions: Homo sapiens, CCRF-CEM, 72 h; for IC50: read-out: IC50 (absolute IC50); for Emax: read-out: MI %. The method, then: (§1) In vitro viability assay were performed to assess the effects of compounds on cell viability in selected cell lines over 72 hr using the CellTiterGlo (CTG, Promega-G7573) assay. […] Cell viability assay using CellTiterGlo in 96-well plate were performed. Compound treatment 72 hrs, standard growth conditions, duplicates. Compounds were dissolved to 40 mM with thawed 100%. […] After compounds were dissolved in media, media containing compounds were warmed to 37° C. in incubator and then compounds in media were added to cell plates ([…]) in duplicates. […] All compound solubilities were checked and recorded again, then the plates were transferred to CO2 tissue culture incubator immediately and incubated for 3 days. DMSO final concentration is 0.5%.
(ATP-based viability assays read luminescence as a measure of living cells.)

The test system of a further data set is HEL92.1.7. The data set is described as above. The settings on record: Homo sapiens, HEL 92.1.7, 72 h; for IC50: read-out: IC50 (absolute IC50); for Emax: read-out: MI %. On the procedure:
as §1

The subject of a further data set is HL-60. The data set is described as above. The settings on record: Homo sapiens, HL-60, 72 h; for IC50: read-out: IC50 (absolute IC50); for Emax: read-out: MI %. On the procedure: as §1
The next data set concerns HT29. The data set is described as above. Conditions: Homo sapiens, HT-29, 72 h; for IC50: read-out: IC50 (absolute IC50); for Emax: read-out: MI %. On the procedure: as §1
A further data set has as its system HepG2. Described as above. The settings on record: Homo sapiens, HepG2, 72 h; for IC50: read-out: IC50 (absolute IC50); for Emax: read-out: MI %. The method, then:
as §1

In a further data set the test system is K562. The description is as above. Conditions: Homo sapiens, K562, 72 h; for IC50: read-out: IC50 (absolute IC50); for Emax: read-out: MI %. On the procedure:
as §1

For the next data set, the system named is KG-1. The data set is described as above. The settings on record: Homo sapiens, KG-1, 72 h; for IC50: read-out: IC50 (absolute IC50); for Emax: read-out: MI %. The method, then: as §1
Another data set has as its system MCF7. The data set is described as above. Conditions: Homo sapiens, MCF7, 72 h; for IC50: read-out: IC50 (absolute IC50); for Emax: read-out: MI %. The method, then:
as §1

For a further data set, the system named is MiaPaCa-2. Described as above. The settings on record: Homo sapiens, MIA PaCa-2, 72 h; for IC50: read-out: IC50 (absolute IC50); for Emax: read-out: MI %. The method, then: as §1
For a further data set, the system named is KG1a cells. Nature of the data set: Annexin V/propidium iodide in vitro apoptosis assay (LD50). Conditions: 72 h.
In data set [1] the test system is leukaemic stem cell (LSC) compartment within the KG1a cell line. Nature of the data set: Immunophenotypic identification of the leukaemic stem cell compartment. The settings on record: 72 h; for LSC targeting compared with the parent nucleoside: for compound A at 1 mM and above. On the procedure: KG1a cells were cultured for 72 h in the presence of a wide range of concentrations of each compound assayed. Cells were then harvested and labelled with a cocktail of anti-lineage antibodies (PE-cy7), anti-CD34 (FITC), anti-CD38 (PE) and anti-CD123 (PERCP cy5). The sub-population expressing a LSC phenotype were subsequently identified and were expressed as a percentage of all viable cells left in the culture. The percentages of stem cells remaining were then plotted on a dose-response graph and the effects of the compounds were compared with each other, and with the parent nucleoside.
The data obtained in these experiments were evaluated using one way ANOVA. All data was confirmed as Gaussian or a Gaussian approximation using the omnibus K2 test. LD50 values were calculated from the non-linear regression and line of best-fit analysis of the sigmoidal dose-response curves. All statistical analyses were performed using Graphpad Prism 6.0 software (Graphpad Software Inc., San Diego, Calif.).

Protocol for KG1a cells: The KG1a cell line was maintained in RPMI medium (Invitrogen, Paisley, UK) supplemented with 100 units/ml penicillin, 100 μg/ml streptomycin and 20% foetal calf serum. Cells were subsequently aliquoted (10^5 cells/100 μl) into 96-well plates and were incubated at 37° C. in a humidified 5% carbon dioxide atmosphere for 72 h in the presence of nucleoside analogues and their respective proTides at concentrations that were experimentally determined for each series of compounds. In addition, control cultures were carried out to which no drug was added. Cells were subsequently harvested by centrifugation and were analyzed by flow cytometry using the Annexin V assay.
Cultured cells were harvested by centrifugation and then resuspended in 195 μl of calcium-rich buffer. Subsequently, 5 μl of Annexin V (Caltag Medsystems, Botolph Claydon, UK) was added to the cell suspension and cells were incubated in the dark for 10 mins prior to washing. Cells were finally resuspended in 190 μl of calcium-rich buffer together with 10 μl of propidium iodide. Apoptosis was assessed by dual-colour immunofluorescent flow cytometry as described previously.
The data obtained in these experiments were evaluated using one way ANOVA. […] LD50 values were calculated from the non-linear regression and line of best-fit analysis of the sigmoidal dose-response curves. […]

A word on the IC50: it is the concentration that gives 50% inhibition. In the case of `Nc1nc(F)nc2c1ncn2[C@@H]1O[C@H](CO)C[C@H]1O` [2-F-Cordycepin, 3′deoxy-2-fluoroadenosine, reference compound], the IC50 in the data set with CCRFCEM fell in the range of 15 to 100 µM; in the data set on HEL92.1.7 it was 5 to 15 µM; in the data set on HL-60, 5 to 15 µM; in the data set on HT29 it was 15 to 100 µM; in the data set on HepG2 it was 15 to 100 µM; with K562 it was 15 to 100 µM. Besides, the results for the IC50 with KG-1, with MCF7 and with MiaPaCa-2 were 5 to 15 µM, 15 to 100 µM and 15 to 100 µM, respectively. Also, the Emax with CCRFCEM stood at 101%; in the data set with HEL92.1.7, 99%; with HL-60, 96%; in the data set on HT29 it was 73%; in the data set with HepG2 it was 82%; in the data set on K562, 97%. Besides, the Emax with KG-1 stood at 99%; in the data set on MCF7 it was 97%; in the data set on MiaPaCa-2, 100%. For the same compound, the “in vitro drug sensitivity / potency (LD50 comparison, FIG. 1)” value with KG1a cells is “significantly more potent than Cordycepin”.

As to `C[C@H](NP(=O)(OC[C@@H]1C[C@H](O)[C@H](n2cnc3c(N)nc(F)nc32)O1)Oc1cccc2ccccc12)C(=O)OCc1ccccc1` (stereo partly drawn) [Compound O, 2-Fluoro-3′-deoxyadenosine-5′-O-[1-naphthyl(benzyloxy-L-alaninyl)] phosphate], the IC50 lay in the range of 0.1 to 5 µM with CCRFCEM; 0.1 to 5 µM in the data set on HEL92.1.7; 0.1 to 5 µM in the data set on HL-60; 15 to 100 µM in the data set with HT29; 5 to 15 µM in the data set with HepG2; 0.1 to 5 µM in the data set on K562. In addition, the IC50 in the data set with KG-1 lay within 5 to 15 µM; in the data set on MCF7, 0.1 to 5 µM; in the data set on MiaPaCa-2, 0.1 to 5 µM. Also, the Emax in the data set on CCRFCEM is 99%; with HEL92.1.7 it was 100%; in the data set on HL-60, 101%; in the data set with HT29, 84%; in the data set with HepG2, 83%; with K562, 99%. Further, the Emax is 99% in the data set on KG-1, 95% with MCF7 and 100% in the data set with MiaPaCa-2. The “reduction of LSCs as a proportion of the cancer cells in culture (ability to target LSCs)” value in data set [1] (Lin−/CD34+/CD38−/CD123+) is “able to bring about a reduction in the proportion of LSCs”. The “LSC targeting compared with the parent nucleoside” value in data set [1] is “not significantly different to 2-F-Cordycepin”.

For `CCCCCOC(=O)[C@H](CC(C)C)NP(=O)(OC[C@@H]1C[C@H](O)[C@H](n2cnc3c(N)nc(F)nc32)O1)Oc1cccc2ccccc12` (stereo partly drawn) [Compound Q, 2-Fluoro-3′-deoxyadenosine-5′-O-[1-naphthyl(1-pentyloxy-L-leucinyl)] phosphate], the half-maximal inhibitory concentration (IC50) in the data set on CCRFCEM was in the range of 0.1 to 5 µM; in the data set on HEL92.1.7, 0.1 to 5 µM; in the data set with HL-60, 0.1 to 5 µM; with HT29, 15 to 100 µM; in the data set on HepG2 it was 0.1 to 5 µM; in the data set on K562 it was 0.1 to 5 µM. The figures for the IC50 in the data set on KG-1, in the data set with MCF7 and with MiaPaCa-2 were 5 to 15 µM, 0.1 to 5 µM and 0.1 to 5 µM, respectively. The Emax in the data set with CCRFCEM was found to be 101%; with HEL92.1.7 it was 99%; in the data set on HL-60, 99%; in the data set on HT29, 88%; in the data set with HepG2, 94%; in the data set on K562 it was 100%. Moreover, the Emax with KG-1 came out at 103%; in the data set with MCF7 it was 99%; with MiaPaCa-2, 100%. The “LSC targeting compared with the parent nucleoside” value in data set [1] was “significantly improved when compared with the parental nucleoside”.

Consider `CCCCCCOC(=O)[C@H](C)NP(=O)(OC[C@@H]1C[C@@H](O)[C@H](n2cnc3c(N)nc(F)nc32)O1)Oc1ccccc1` (stereo partly drawn) [R, (2S)-hexyl 2-(((((2S,4R,5R)-5-(6-amino-2-fluoro-9H-purin-9-yl)-4-hydroxytetrahydrofuran-2-yl)methoxy)(phenoxy)phosphoryl)amino)propanoate], for which the IC50 with CCRFCEM is 0.1 to 5 µM; in the data set with HEL92.1.7 it was 0.1 to 5 µM; in the data set with HL-60, 0.1 to 5 µM; in the data set with HT29, 15 to 100 µM; in the data set on HepG2, 5 to 15 µM; with K562 it was 5 to 15 µM. Further, the IC50 was in the range of 0.1 to 5 µM in the data set on KG-1, 0.1 to 5 µM with MCF7 and 5 to 15 µM in the data set with MiaPaCa-2. Moreover, the Emax in the data set with CCRFCEM amounted to 100%; in the data set on HEL92.1.7 it was 99%; in the data set with HL-60 it was 100%; in the data set on HT29 it was 92%; with HepG2, 82%; in the data set on K562 it was 96%. Besides, the Emax in the data set with KG-1 was determined as 96%; in the data set on MCF7, 87%; with MiaPaCa-2, 98%. The “LSC targeting compared with the parent nucleoside” value in data set [1] is reported as “significantly improved when compared with the parental nucleoside”.

The values above are taken from patent US10570168B2, “2′ and/or 5′ amino-acid ester phosphoramidate 3′-deoxy adenosine derivatives as anti- cancer compounds” (NuCana plc, priority 2014, dated 2020).
